Data as given in patent US8246966B2, “Trypanosome microsome system and uses thereof” (priority 2006, dated 2012).
Entries after “also recorded” stand apart in the source; their conditions may differ. Where two headings read alike, the source gives them in different places.

How the values were obtained:
[1] = system: T. brucei microsomes (TbRM); assay: Post-translational import of VSG—11786 into T. brucei microsomes, proteinase K protection (Example 2); assay type: biochemical, Trypanosoma brucei; conditions: for effect on protein import into TbRM (in words): VSG—11786 substrate
Procedure: FIGS. 2A and 2B show the effect of protein translocation inhibitors on TbRM. FIG. 2A presents the protocol used for import of VSG—117500. In FIG. 2B, SG—117500 mRNA was translated in rabbit reticulocyte lysate with 1.5 equivalents T. brucei cytosol (pretreated with MAL3-101 (0.3 μM), MAL3-51 (1 μM), CJ21,058 (20 μM) or equisetin (50 μM)) for 60 minutes. The reaction mixtures were treated with cycloheximide (50 μg/ml, final concentration) and incubated with TbRM (one equivalent). The mixture was incubated for 60 minutes at 37° C. and digested with proteinase K digestion (30 μg/ml, final concentration) for 60 minutes on ice. Proteins were resolved by SDS-PAGE and detected by phosphorimaging. In lanes 1 and 2, TbRM were pretreated with DMSO. Lane 1 is untreated VSG—117500 with TbRM; lane 2 is VSG—117500 incubated with TbRM and treated with proteinase K. In lanes 3 and 4 TbRM were pretreated with MAL3-101. Lane 3 is VSG—117500 incubated with TbRM; lane 4 is VSG—117500 incubated with TbRM and then treated with proteinase K. In lanes 5 and 6 TbRM pretreated with MAL3-51. Lane 5 is VSG—117500 incubated with TbRM; lane 6 is VSG—117500 incubated with TbRM and then treated with proteinase K. In lanes 7 and 8 TbRM were pretreated with CJ-21,058). Lane 7 is VSG—117500 incubated with TbRM; lane 8 is VSG—117500 incubated with ThRM and then treated with proteinase K. In lanes 9 and 10 TbRM were pretreated with equisetin). Lane 9 is VSG—117500 incubated with TbRM; lane 10 is VSG—117500 incubated with TbRM and then treated with proteinase K.
Protein import into TbRM. Two micrograms (μg) of RNA encoding a truncated substrate (e.g., VSG—11786) was translated in […] of a reaction mixture containing 20 μl rabbit reticulocyte lysate, 60 μM amino acid mixture (-Met, -Cys), and 2.4 μCi [^35S]Promix. The reaction was incubated at 37° C. for 15 minutes. Cycloheximide (50 μg/ml, final concentration) was used to stop further translation, and the mixture was divided into two portions. T. brucei microsomes (ThRM) (1 equivalent) was added to one aliquot, and to the other portion an equal volume of RM buffer was added. The reactions were incubated at 37° C. for 45 minutes for protein import into TbRM to take place post-translationally.
Each reaction mixture was divided into three (each 10 μl) and treated with one of the following on ice for one hour: (I) RM buffer; (ii) 30 μg/ml protease K; (iii) nonidet P-40 (NP-40) (2%, final concentration) followed by protease K (30 μg/ml, final concentration). PMSF (20 mM final concentration) was added to stop protease K digestion. Samples were precipitated with an equal volume of cold (NH4)2SO4 sulphate (saturated) and resolved by sodium dodecyl sulfate-polyacrylamide gel electrophoresis (SDS-PAGE) (4% total acrylamide, 3% cross linker in tricene-HCl system) (Fekkes et al., 1998, Mol Microbiol; 29(5):1179-90). The gels were dried, and radioactive polypeptides detected with a phosphorimager (Molecular Imager FX, (BioRad). Data bands were quantitated with QuantityOne software (BioRad), and graphs were plotted with DeltaGraph (Red Rock software).
A small molecule inhibitor of Hsp70-Hsp40 interaction blocks protein translocation into TbRM. Post-translational ER protein translocation in Saccharomyces cerevisiae and E. coli requires cytosolic chaperones. In the yeast S. cerevisiae, for example, Ssa1p (Hsp70) and co-chaperone Ydj1p (Hsp40) (Becker et al., 1996, Mol Cell Biol; 16(8):4378-86; Ngosuwan et al., 2003, J Biol Chem; 278(9):7034-42; and McClellan et al., 1998, Mol Biol Cell; 9(12): 3533-45) as well as Kar2p/BiP stimulate post-translational protein import (Lyman and Schekman, 1995, J Cell Biol; 131(5):1163-71; Panzner et al., 1995, Cell; 81(4):561-70; and Holkeri et al., 1998, J Cell Sci; 111:749-757). […]

HeLa cells = assay: HeLa cell viability, propidium iodide exclusion assay; assay type: cell-based, human
Procedure: HeLa cells, treated with DMSO, MAL3-101, MAL3-51, CJ-21,058 or equisetin, were subject to a propidium iodide viability assay and analyzed by flow cytometry.
HeLa cell line was maintained in RPMI-1640 supplemented with 10% bovine serum, 100 U/ml penicillin/streptomycin, and 2 mM L-glutamine at 37° C. in 5% CO2.
HeLa cell viability assays. Propidium iodide exclusion assay (reviewed in Steff et al., 2001, Cytometry; 45(4):237-43 and Wigg et al., 2003, Anal Biochem; 317(1):19-25) was used to determine HeLa cell viability after drug treatment. Cells were plated at 1×10^4 cells per well (96 well plate) with or without addition of test compounds for the stated time periods, as described for FIGS. 1-4. […] Adherent cells were rinsed with phosphate buffered saline (PBS), trypsinized (37° C. for 5 minutes), pelleted (2,000 g, 2 minutes), resuspended in PBS (500 μl) containing propidium iodide (1 μg/ml), DAPI [4′-6-Diamidino-2-phenylindole] (5 μg/ml) and analyzed by flow cytometry on a Dakocytomation CyAn without gating. Single fluorophore controls were acquired prior to the collection of the experimental data.

Row | inhibition of translocation of VSG—11786 into TbRM ([1]; CJ-21,058 20 μM) [%] | Compound | VSG—11786 translocated into TbRM (protection from proteinase K digestion) ([1]; MAL3-101 present (0.3 μM in FIG. 2B legend), DMSO control 80%) [%] | effect on protein import into TbRM (in words) [1] | effect on human HeLa cells (HeLa cells) | inhibition of translocation of VSG—11786 into TbRM ([1]; equisetin 25 μM) [%] | effect on human HeLa cells (HeLa cells; concentrations that killed one hundred percent T. brucei (IC100)) | HeLa cell viability (HeLa cells; equisetin 26 μM)
1 | – | CCCCCCN(C(=O)CCCCCN1C(=O)NC(c2ccc(-c3ccccc3)cc2)C(C(=O)OCc2ccccc2)=C1C)C(C(=O)NCCCC)c1ccc(OCC(=O)OC)c(C(=O)OC)c1 (stereo not drawn) [MAL3-101] | 13 | blocked import | – | – | – | –
2 | 95 | C/C=C/C1C(C)=CC2CC(C)CCC2C1(C)/C(O)=C1/C(=O)C(CO)N(C)C1=O (stereo not drawn) [CJ-21,058] | – | inhibited import | little effect | – | – | –
3 | – | C/C=C/[C@@H]1C=C[C@@H]2C[C@H](C)CC[C@H]2[C@]1(C)/C(O)=C1/C(=O)[C@H](CO)N(C)C1=O [equisetin] | – | inhibited import | – | 95 | little effect; also recorded: did not have discernible effects | neither CJ-21,058 (20 μM) nor equisetin (26 μM) decreased viability of HeLa cells
